Square brackets hold non-standard residues; d marks the D form. Ends that are not written are not given here. Phe(4-CF3) = N[C@@H](Cc1ccc(C(F)(F)F)cc1)C(=O)O
Columns and labels:
NTS1 = conditions: cited from earlier work
Text: The ECL2 of many GPCRs forms a lid over the ligand-bound orthosteric binding pocket of the receptor via interaction with the N-terminal region or ECL3 of the receptor, which can increase the affinity of the ligand by slowing down its dissociation rate[35],[37]. Although such a formation has not been confirmed experimentally for NTS1, all structures published to date on the complex of NT with NTS1 show close contacts between the N-terminal region and the ECL2 of NTS1 (PDB: 4XEE, 6YVR, 4BUO)[21],[33],[34]. However, the structure of these parts of NTS1 in the apo-state or when complexed with smal ...

enNTS1 [1] = test: Ligand-observed 19F NMR / 19F STD, enNTS1 complex; assay type: binding, rat; conditions: 298 K, pH 7.4
enNTS1-R213 = test: Ligand-observed 19F NMR / 19F STD, enNTS1-R213 complex; assay type: binding, rat; conditions: 298 K, pH 7.4
Description: The peptide-receptor complex was formed by addition of a 10-fold excess of peptide to receptor. The solution was incubated on ice for one hour, followed by buffer exchange to remove free peptide in 50 mM potassium phosphate pH 7.4, 100 mM NaCl, 0.05% DDM, 50 µM EDTA, 0.02% NaN3. 100 μM of freshly formed complexes were mixed with 10 μM free receptor to ensure excess receptor. The samples were adjusted to 10% D2O, 500 μM DSS and 20 μM TFA as lock nuclei, ^1H and ^19F references, respectively.
For NMR experiments in the presence of Gαiq, enNTS1-R213 was incubated on ice with 5-fold Y11tfmF-NT8-13 over receptor for 30 min and then 5-fold Gαiq over receptor with incubation for another 30 min. […]
^19F saturation transfer difference (STD) experiments were acquired using the STDDiff pulse sequence from the Bruker library. […] These were interleaved with equivalent off-resonance spectra, where the offset was set equidistant to the monitored and saturated peaks. The intensities of the monitored peak in the presence of on-resonance saturation were normalized against the spectra collected in the absence of saturation and subtracted from the intensities in the presence of the equidistant off-resonance spectra to account for off-resonance effects. […]

[2] = tested on: free fatty acid receptor 2, FFA2; conditions: cited from earlier work
Text: Whether NT binds to the orthosteric binding pocket of the intermediate state or occupies different conformations in distinct pockets remains to be fully answered. […] Intermediate-state binding pockets have been attributed to a sequential activation mechanism of the free fatty acid receptor 2, FFA2, by the previously considered allosteric modulator, 4-CMTB[62]. 4-CMTB binds to the orthoste ...

enNTS1 [3] = test: Cell surface competition binding assay, enNTS1; parameters: species or system rat; conditions: HEK293F cells, competition with 5 nM Cy5-NT8-13, 1 h, room temperature, flow cytometry, n = 4
Description: 100,000 HEK293F cells (Invitrogen) stably expressing receptor and the cytosolic mCherry fluorophore were suspended in complete phenol red free DMEM (10% FBS, 1% L-Glutamine, 1% penicillin-streptomycin) and were added to the relevant ligand concentrations in the presence of 5 nM Cy5-NT8-13 for enNTS1 and wt-rNTS1 or 2 nM FAM-NT8-13 for rNTS1-R213L. Cells were then gently agitated on an orbital shaker in the dark for 1 h at room temperature for ligand binding to reach a state of equilibrium. The mean fluorescence intensity of bound FAM-NT8-13 and Cy5-NT8-13 was measured with a CytoflexS (Beckman-Coulter) flow cytometer using the 525/40 and 660/20 filter, respectively. Data was then analysed using the One site – Fit Ki function on GraphPad Prism (version: 9.3.1, Graphpad Software, San Diego, CA). The data for enNTS1 and wt-NTS1 are mean of four replicates (n = 4) and the assays with rNTS1-R213L are performed in triplicates (n = 3).
Supplementary Figure 3. Functional characterization of the NT peptides used in this study. The cell-surface binding of peptides to (a) wt-rNTS1 and enNTS1 (b) rNTS1-R213L. The competition binding curves are for NT8-13 (black circles) , Y11tfmF-NT8-13 (red triangles).
Cy5-labellled NT8-13 and FAM -labelled NT8-13 was used as a fluorescent competitor for investigating the binding. […]

wt-rNTS1 [4] = test: G protein BRET assay, wt-rNTS1; assay type: cell-based, rat; conditions: HEK293T cells, n = 3
Description: (§1) 500,000 HEK293T cells were seeded per well in a 6-well plate in complete DMEM (10% FBS, 1% L-Glutamine, 1% penicillin-streptomycin). Cells were transfected the following day with a solution of Opti-mem and lipofectamine 2000 at a quantity of 1 µL/1 µg of DNA. For β-arrestin-2 recruitment assay cells were co-transfected with 250 ng of either pcDNA 3.1 zeo-HA-FLAG-wt-rNTS1-nLuc or pcDNA 3.1 zeo-HA-FLAG-rNTS1-R213L-nLuc and with 600 ng of pcDNA human β-arrestin-2-Venus. In G protein BRET assays, cells were co-transfected with 750 ng of pCSC-rNTS1-IRES-mCherry, pCSC-rNTS1-R213L-IRES-mCherry or pCSC-enNTS1-IRES-mCherry and with 250 ng of Gαi (for enNTS1) or Gq (for rNTS1 and rNTS1-R213L) BRET biosensor. […] The plate was then incubated at 37 °C for 10 min in a PHERAstar® FSX microplate reader (BMG LABTECH). Dual luminescence of 450/535 nm was then measured for 3 min before manually adding 10 µL of 10x ligand concentration or vehicle to respective wells before completing the time course measurement. The BRET ratio was calculated as Venus emission to nLuc emission. […] Concentration–response curves were calculated by first integrating the area under the BRET ratio over time plot using the Area Under the Curve function and then plotted against ligand concentration. […]

wt-rNTS1 [5] = test: β-arrestin-2 recruitment BRET assay, wt-rNTS1; assay type: cell-based, rat; conditions: HEK293T cells, β-arrestin-2-Venus, 37 °C, n = 3
Description: as §1

[6] = 19F NMR interaction with DDM micelles; assay type: physicochemical; conditions: 298 K, Supplementary Fig. 5b
Description: All NMR experiments were performed on a Bruker 700 MHz Avance IIIHD spectrometer running Topspin 3.2.7 and equipped with a ^1H/^13C/^15N triple-resonance TCI cryoprobe, where the proton channel was tuned to ^19F, ~658 MHz. The 1D spectra were collected in a pulse-acquire manner at 298 K, with the carrier frequency set at −65 ppm. 512 to 2048 scans were collected per spectrum with 16 K of data points and a spectral width of 49 ppm. 2680 scans were collected for the sample of Y11tfmF-NT8-13 in complex with enNTS1 in the presence of Gαiq. The spectrum on the complex of ^19F-labelled peptides and ^19F-labelled receptor were processed in Topspin vs3.4 using, respectively, 50 Hz and 10 Hz line broadening and zero filling prior to Fourier transformation. Spectral deconvolution was performed in MNova (version: 10.0.2-15465, Mestrelab Research).

[7] = target: T1, wt-rNTS1 (wild-type rat neurotensin receptor 1) on HEK293F cells (rat, UniProt P20789 1-424); test: flow cytometry on cells; cell surface competition: 100,000 HEK293F cells stably expressing receptor, unlabelled ligand varied against 5 nM Cy5-NT8-13, 1 h at room temperature, mCherry-positive single cells, One site - Fit Ki; conditions: one partner purified
T1 construct: also called wt-NTS1; source: HEK293F cells stably expressing receptor and cytosolic mCherry
T1 sequence (P20789 whole entry): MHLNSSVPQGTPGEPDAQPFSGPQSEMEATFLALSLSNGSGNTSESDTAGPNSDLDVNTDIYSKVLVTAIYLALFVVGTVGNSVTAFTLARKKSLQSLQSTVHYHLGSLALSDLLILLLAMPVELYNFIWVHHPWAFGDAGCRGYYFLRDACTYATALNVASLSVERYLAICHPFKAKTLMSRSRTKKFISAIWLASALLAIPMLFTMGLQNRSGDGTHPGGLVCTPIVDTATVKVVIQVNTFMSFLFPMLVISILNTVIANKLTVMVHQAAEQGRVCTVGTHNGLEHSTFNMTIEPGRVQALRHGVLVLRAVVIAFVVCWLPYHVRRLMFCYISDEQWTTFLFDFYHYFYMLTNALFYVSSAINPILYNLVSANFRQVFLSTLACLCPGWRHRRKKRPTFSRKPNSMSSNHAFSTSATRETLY

Molecule: COc1cccc(OC)c1-c1cc(C(=O)NC2(C(=O)O)C3CC4CC(C3)CC2C4)nn1-c1ccc(C(=O)N(C)CCCN(C)C)cc1C(C)C (centres unmarked) [SR142948A]
- pharmacological class at NTS1 (NTS1): inverse agonists

Molecule: COc1cccc(OC)c1-c1cc(C(=O)NC2(C(=O)O)C3CC4CC(C3)CC2C4)nn1-c1ccnc2cc(Cl)ccc12 (centres unmarked) [SR48692]
- pharmacological class at NTS1 (NTS1): inverse agonists

Molecule: Y11tfmF-NT8-13: truncated version of 19F-NT (RRP[Phe(4-CF3)]IL)
- exchange rate constant from S1 to S2, k12 (enNTS1 [1]): 1.23 s⁻¹
- exchange rate constant from S2 to S1, k21 (enNTS1 [1]): 0.08 s⁻¹
- exchange rate constant k12 (S1 to S2) (enNTS1-R213): 0.14 s⁻¹
- exchange rate constant k21 (S2 to S1) (enNTS1-R213): 0.26 s⁻¹

Molecule: CC(C)C(C(=O)Nc1nccs1)c1ccc(Cl)cc1 (centres unmarked) [4-CMTB]
- binding and signalling at FFA2 [2]: binds to the orthosteric binding pocket of FFA2, where it primarily initiates downstream orthosteric signalling followed by diffusion into an allosteric pocket

Molecule: Y11tfmF-NT: fluorinated analogue of NT, Tyr11 substituted with para-trifluoromethyl-phenylalanine (ELYENKPRRPFIL; para-trifluoromethyl-phenylalanine (tfmF) at position 11; pyroglutamate (pE) at position 1 as in NT)
- affinity for enNTS1 (effect of CF3 moiety) (enNTS1 [3]): unaffected
- activation of wt-rNTS1 (wt-rNTS1 [4]; BRET assays): can fully activate wt-rNTS1
- efficacy in G protein BRET assay (wt-rNTS1 [4]; Gq BRET biosensor, 37 °C): equally efficacious
- efficacy in β-arrestin recruitment BRET assay (wt-rNTS1 [5]): equally efficacious
- effect of DDM on 19F NMR signal of the peptide [6]: not perturbed in the presence of DDM

Molecule: COc1cccc(OC)c1-c1cc(C(=O)N[C@@H](CC(C)C)C(=O)O)nn1-c1ccnc2cc(Cl)ccc12 [RTI-3a]
- pharmacological class at NTS1 (NTS1): partial agonist

B1: Y11tfmF-NT (peptide)
peptide: ELYENKPRRPFIL
modifications: para-trifluoromethyl-phenylalanine (tfmF) at position 11; pyroglutamate (pE) at position 1 as in NT
notes: in this molecule Tyr11 is replaced by tfmF (see substitutions); numbers count on: the mature neurotensin peptide; The new residue is the unnatural amino acid para-trifluoromethyl-phenylalanine, written F in the substitution row; also called 19F-NT; fluorinated analogue of NT; source: synthetic peptide (Fmoc solid phase synthesis, reverse-phase HPLC)
- fold reduction of affinity against NT [7]: 100 fold
